The experiment relates to M. tuberculosis. Put plainly: Extracellular activity against M. tuberculosis in cholesterol media (Alamar Blue reduction assay). It counts as cell-based, Mycobacterium tuberculosis. Conditions: Mycobacterium tuberculosis, 240 h, 7H12-Cholesterol media, 10 days; read-out: Cholesterol broth: alamar blue--EC50.
Turning to `Cn1ncnc1CC(=O)N1CC2CC(C1)C2c1nc(-c2ccc(Cl)c(Cl)c2)no1` (centres unmarked) [Compound 216, 1-(6-(3-(3,4-dichlorophenyl)-1,2,4-oxadiazol-5-yl)-3-azabicyclo[3.1.1]heptan-3-yl)-2-(1-methyl-1H-1,2,4-triazol-5-yl)ethan-1-one], the half-maximal effective concentration (EC50) is above 10000 nM. As for `Cn1ncnc1CC(=O)N1C[C@H]2C[C@@H](C1)[C@@H]2c1nc(-c2ccc(Cl)c(Cl)c2)no1` [Compound 217, 1-((1R,5S,6r)-6-(3-(3,4-dichlorophenyl)-1,2,4-oxadiazol-5-yl)-3-azabicyclo[3.1.1]heptan-3-yl)-2-(1-methyl-1H-1,2,4-triazol-5-yl)ethan-1-one], the figure is 100 nM; as for `Cn1ncnc1CC(=O)N1C[C@H]2C[C@@H](C1)[C@H]2c1nc(-c2ccc(Cl)c(Cl)c2)no1` [Compound 218, 1-((1R,5S,6s)-6-(3-(3,4-dichlorophenyl)-1,2,4-oxadiazol-5-yl)-3-azabicyclo[3.1.1]heptan-3-yl)-2-(1-methyl-1H-1,2,4-triazol-5-yl)ethan-1-one], above 10000 nM.

Consider `Cn1ncnc1CC(=O)N1C[C@H]2C[C@@H](C1)[C@H]2c1nc(-c2ccc(Cl)cc2)no1` [Compound 219, 1-((1R,5S,6s)-6-(3-(4-chlorophenyl)-1,2,4-oxadiazol-5-yl)-3-azabicyclo[3.1.1]heptan-3-yl)-2-(1-methyl-1H-1,2,4-triazol-5-yl)ethan-1-one], for which the EC50 was above 10000 nM. As for `Cn1ncnc1CC(=O)N1C[C@H]2C[C@@H](C1)[C@@H]2c1nc(-c2ccc(Cl)cc2)no1` [Compound 220, 1-((1R,5S,6r)-6-(3-(4-chlorophenyl)-1,2,4-oxadiazol-5-yl)-3-azabicyclo[3.1.1]heptan-3-yl)-2-(1-methyl-1H-1,2,4-triazol-5-yl)ethan-1-one], the figure is 140 nM; as for `Cn1ncnc1CC(=O)N1C[C@H]2C[C@@H](C1)[C@@H]2c1nc(-c2ccc(Cl)c(F)c2)no1` [Compound 221, 1-((1R,5S,6r)-6-(3-(4-chloro-3-fluorophenyl)-1,2,4-oxadiazol-5-yl)-3-azabicyclo[3.1.1]heptan-3-yl)-2-(1-methyl-1H-1,2,4-triazol-5-yl)ethan-1-one], 100 nM. As for `Cn1ncnc1CC(=O)N1C[C@H]2C[C@@H](C1)[C@H]2c1nc(-c2ccc(Cl)c(F)c2)no1` [Compound 222, 1-((1R,5S,6s)-6-(3-(4-chloro-3-fluorophenyl)-1,2,4-oxadiazol-5-yl)-3-azabicyclo[3.1.1]heptan-3-yl)-2-(1-methyl-1H-1,2,4-triazol-5-yl)ethan-1-one], the figure is above 10000 nM; as for `Cn1ncnc1CC(=O)N1C[C@H]2C[C@@H](C1)[C@@H]2c1nc(-c2ccc(Cl)cc2F)no1` [Compound 223, 1-((1R,5S,6r)-6-(3-(4-chloro-2-fluorophenyl)-1,2,4-oxadiazol-5-yl)-3-azabicyclo[3.1.1]heptan-3-yl)-2-(1-methyl-1H-1,2,4-triazol-5-yl)ethan-1-one], 290 nM. The same measure for `Cn1ncnc1CC(=O)N1C[C@H]2C[C@@H](C1)[C@H]2c1nc(-c2ccc(Cl)cc2F)no1` [Compound 224, 1-((1R,5S,6s)-6-(3-(4-chloro-2-fluorophenyl)-1,2,4-oxadiazol-5-yl)-3-azabicyclo[3.1.1]heptan-3-yl)-2-(1-methyl-1H-1,2,4-triazol-5-yl)ethan-1-one]: above 10000 nM; for `Cc1noc(CC(=O)N2CCC3(CC2)CC(c2nc(C4CCCCC4)no2)C3)n1` [Compound 225, 1-(2-(3-cyclohexyl-1,2,4-oxadiazol-5-yl)-7-azaspiro[3.5]nonan-7-yl)-2-(3-methyl-1,2,4-oxadiazol-5-yl)ethan-1-one]: above 10000 nM; for `Cc1noc(CC(=O)N2CCC3(CC2)CC(c2nc(-c4ccc(Cl)c(Cl)c4)no2)C3)n1` [Compound 226, 1-(2-(3-(3,4-dichlorophenyl)-1,2,4-oxadiazol-5-yl)-7-azaspiro[3.5]nonan-7-yl)-2-(3-methyl-1,2,4-oxadiazol-5-yl)ethan-1-one]: 109 nM.

A word on the EC50: it is the concentration at which the effect is half-maximal.
